This is an account of results in patent EP1298213A1, “Variants of an Erwinia-type creatinase” (Roche Diagnostics GmbH, priority 2001, dated 2003).

Assay [1] concerns creatinase from Alcalingenes. The following applies: reported in patent US 5,451,520; substrate creatine taken from context (b8); cited from earlier work.
For assay [2], the system named is Erwinia sp. DSM 97-934 creatinase variant CT2m28 (N130D, I304L, I278T), SEQ ID NO: 16. Nature of the assay: Km determination, coupled creatinase activity assay. The assay is classed as biochemical. As to conditions: creatine substrate at 90, 45, 22.5, 11.3, 5.6 and 2.8 mM; 0.1 M potassium phosphate buffer pH 7.8; 25°C. How it is done: (§1) The activity assay for creatinase and its variants was performed by using creatine as substrate and a coupled enzymatic reaction according to Guder, W. G., et al., J Clin Chem Clin Biochem 24 (1986) 889-902.
(§2) The reaction mixture was set up by combining the following reagents:
(§3) The assay for creatinase was carried out at 25°C and at the wavelength of 546 nm for 10 min. ΔE was calculated from the measurement points of 6 to 10 min.
(§4) For KM determination, creatinase activity was determined according to the assay procedure described in Example 3 using six different concentrations of creatine substrate: 90 mM, 45 mM, 22.5 mM, 11.3 mM, 5.6 mM and 2.8 mM.

Assay [3] has as its system Erwinia sp. DSM 97-934 creatinase, wild type, SEQ ID NO:2. Described as above. The following applies: creatine substrate at 90, 45, 22.5, 11.3, 5.6 and 2.8 mM; 0.1 M potassium phosphate buffer pH 7.8; 25°C. The assay is classed as biochemical. As to the method:
as §1, §2, §3, §4

Assay [4] has as its system Erwinia sp. DSM 97-934 creatinase variant CTqc2 (F59W, N130D, I278T), SEQ ID NO: 18. The description is as above. The following applies: creatine substrate at 90, 45, 22.5, 11.3, 5.6 and 2.8 mM; 0.1 M potassium phosphate buffer pH 7.8; 25°C. The class given is biochemical. How it is done:
as §1, §2, §3, §4

Assay [5] relates to Erwinia sp. DSM 97-934 creatinase variant CTsd2 (N130D, M203V, I278T, F395L), SEQ ID NO: 20. The assay is described as above. The class given is biochemical. The following applies: creatine substrate at 90, 45, 22.5, 11.3, 5.6 and 2.8 mM; 0.1 M potassium phosphate buffer pH 7.8; 25°C. As to the method:
as §1, §2, §3, §4

In assay [6] the test system is Erwinia sp. DSM 97-934 creatinase variant CT1m24 (N130D, I278T), SEQ ID NO: 10. The description is as above. The assay is classed as biochemical. The following applies: creatine substrate at 90, 45, 22.5, 11.3, 5.6 and 2.8 mM; 0.1 M potassium phosphate buffer pH 7.8; 25°C. How it is done:
as §1, §2, §3, §4

The subject of assay [7] is Erwinia sp. DSM 97-934 creatinase variant CT2m9 (N130D, M203V, I278T), SEQ ID NO: 12. The assay is described as above. As to conditions: creatine substrate at 90, 45, 22.5, 11.3, 5.6 and 2.8 mM; 0.1 M potassium phosphate buffer pH 7.8; 25°C. The class given is biochemical. How it is done: as §1, §2, §3, §4
Assay [8] deals with Erwinia sp. DSM 97-934 creatinase variant CTsd7 (F59W, N130D, M203V, I278T, F395L), SEQ ID NO: 22. Described as above. The class given is biochemical. As to conditions: creatine substrate at 90, 45, 22.5, 11.3, 5.6 and 2.8 mM; 0.1 M potassium phosphate buffer pH 7.8; 25°C. As to the method: as §1, §2, §3, §4
Assay [9] concerns Erwinia sp. DSM 97-934 creatinase variant CT2m10 (N130D, I278T, F395L), SEQ ID NO: 14. The description is as above. The class given is biochemical. As to conditions: creatine substrate at 90, 45, 22.5, 11.3, 5.6 and 2.8 mM; 0.1 M potassium phosphate buffer pH 7.8; 25°C. As to the method:
as §1, §2, §3, §4

SMILES strings stand for the structures.

Turning to `CN(CC(=O)O)C(=N)N` [creatine], the Km (usually the concentration of substrate that gives half-maximal velocity) in assay [1] was 13 mM; in assay [2], 4 mM; in assay [3] it was 4.3 mM; in assay [4] it was 6.6 mM; in assay [5], 2.1 mM; in assay [6] it was 8.2 mM. Moreover, the Km in assay [7] was found to be 6.3 mM; in assay [8] it was 2 mM; in assay [9] it was 3.4 mM.
